{"source": "paper PMC9500072", "about": "“Topical application of an irreversible small molecule inhibitor of lysyl oxidases ameliorates skin scarring and fibrosis” (Nature Communications, 2022)", "key": {"Adrenergic α1B": {"target": "Adrenergic α1B (Rattus norvegicus, UniProt P15823)", "sequence (P15823 whole entry)": "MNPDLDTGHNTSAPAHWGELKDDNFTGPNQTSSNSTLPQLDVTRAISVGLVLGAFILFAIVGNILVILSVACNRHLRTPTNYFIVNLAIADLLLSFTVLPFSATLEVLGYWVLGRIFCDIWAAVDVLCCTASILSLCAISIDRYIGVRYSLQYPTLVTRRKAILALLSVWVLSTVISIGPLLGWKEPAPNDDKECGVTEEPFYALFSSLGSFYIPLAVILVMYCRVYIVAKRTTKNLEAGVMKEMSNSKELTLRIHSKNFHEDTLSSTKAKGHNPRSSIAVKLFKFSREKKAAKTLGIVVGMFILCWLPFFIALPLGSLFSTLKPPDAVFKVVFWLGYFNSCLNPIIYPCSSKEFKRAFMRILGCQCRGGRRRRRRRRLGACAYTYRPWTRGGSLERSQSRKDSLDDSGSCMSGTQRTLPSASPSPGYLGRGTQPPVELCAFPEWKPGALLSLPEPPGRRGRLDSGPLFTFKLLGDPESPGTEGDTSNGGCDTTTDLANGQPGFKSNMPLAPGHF", "experiment": "Eurofins panel 203200", "assay_type": "binding"}, "hERG potassium channel": {"target": "hERG potassium channel (Homo sapiens, UniProt Q12809)", "sequence (Q12809 whole entry)": "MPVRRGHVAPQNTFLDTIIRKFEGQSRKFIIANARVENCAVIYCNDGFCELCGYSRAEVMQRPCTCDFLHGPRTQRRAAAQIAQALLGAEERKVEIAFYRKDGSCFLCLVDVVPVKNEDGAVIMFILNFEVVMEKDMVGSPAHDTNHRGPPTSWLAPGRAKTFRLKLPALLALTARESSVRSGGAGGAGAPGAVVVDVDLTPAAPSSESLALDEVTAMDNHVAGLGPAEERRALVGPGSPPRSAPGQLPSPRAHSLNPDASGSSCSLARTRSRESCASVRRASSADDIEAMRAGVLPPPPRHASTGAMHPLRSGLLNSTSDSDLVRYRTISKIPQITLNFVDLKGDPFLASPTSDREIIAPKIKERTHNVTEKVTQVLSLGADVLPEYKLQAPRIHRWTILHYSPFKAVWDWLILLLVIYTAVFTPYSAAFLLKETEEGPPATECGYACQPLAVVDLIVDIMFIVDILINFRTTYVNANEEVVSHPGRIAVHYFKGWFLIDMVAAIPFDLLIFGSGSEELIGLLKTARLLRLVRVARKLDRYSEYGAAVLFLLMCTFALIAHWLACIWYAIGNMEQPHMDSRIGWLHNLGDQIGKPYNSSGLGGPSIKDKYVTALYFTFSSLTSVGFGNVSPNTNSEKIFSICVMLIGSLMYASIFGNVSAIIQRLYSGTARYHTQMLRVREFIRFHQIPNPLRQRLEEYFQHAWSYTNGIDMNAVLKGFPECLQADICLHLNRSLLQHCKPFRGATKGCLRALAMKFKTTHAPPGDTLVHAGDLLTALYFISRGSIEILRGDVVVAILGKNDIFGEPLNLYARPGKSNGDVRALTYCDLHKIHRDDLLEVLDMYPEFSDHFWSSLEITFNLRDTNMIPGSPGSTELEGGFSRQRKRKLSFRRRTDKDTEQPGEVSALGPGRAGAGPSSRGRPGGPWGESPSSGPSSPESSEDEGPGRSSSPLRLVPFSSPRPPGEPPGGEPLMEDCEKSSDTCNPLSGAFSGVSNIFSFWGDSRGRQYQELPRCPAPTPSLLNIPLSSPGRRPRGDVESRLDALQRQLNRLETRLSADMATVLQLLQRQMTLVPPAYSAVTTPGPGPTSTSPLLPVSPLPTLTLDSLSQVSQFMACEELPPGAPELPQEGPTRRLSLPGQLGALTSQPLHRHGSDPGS", "experiment": "Eurofins panel 265900", "assay_type": "binding"}, "Endothelin ETB": {"target": "Endothelin ETB (Homo sapiens, UniProt P24530)", "sequence (P24530 27-442)": "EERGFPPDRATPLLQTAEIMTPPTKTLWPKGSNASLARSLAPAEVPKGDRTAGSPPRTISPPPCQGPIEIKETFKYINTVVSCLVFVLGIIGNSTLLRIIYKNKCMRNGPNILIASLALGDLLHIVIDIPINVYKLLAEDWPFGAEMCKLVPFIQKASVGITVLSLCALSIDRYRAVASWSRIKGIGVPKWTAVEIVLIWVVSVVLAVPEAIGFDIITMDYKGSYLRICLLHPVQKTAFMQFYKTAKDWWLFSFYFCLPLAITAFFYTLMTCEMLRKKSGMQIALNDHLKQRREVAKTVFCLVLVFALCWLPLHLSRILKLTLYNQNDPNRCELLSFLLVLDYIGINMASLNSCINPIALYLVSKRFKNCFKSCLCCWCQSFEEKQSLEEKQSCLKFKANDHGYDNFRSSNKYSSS", "experiment": "Eurofins panel 224110", "assay_type": "binding"}, "Tachykinin NK1": {"target": "Tachykinin NK1 (Homo sapiens, UniProt P25103)", "sequence (P25103 whole entry)": "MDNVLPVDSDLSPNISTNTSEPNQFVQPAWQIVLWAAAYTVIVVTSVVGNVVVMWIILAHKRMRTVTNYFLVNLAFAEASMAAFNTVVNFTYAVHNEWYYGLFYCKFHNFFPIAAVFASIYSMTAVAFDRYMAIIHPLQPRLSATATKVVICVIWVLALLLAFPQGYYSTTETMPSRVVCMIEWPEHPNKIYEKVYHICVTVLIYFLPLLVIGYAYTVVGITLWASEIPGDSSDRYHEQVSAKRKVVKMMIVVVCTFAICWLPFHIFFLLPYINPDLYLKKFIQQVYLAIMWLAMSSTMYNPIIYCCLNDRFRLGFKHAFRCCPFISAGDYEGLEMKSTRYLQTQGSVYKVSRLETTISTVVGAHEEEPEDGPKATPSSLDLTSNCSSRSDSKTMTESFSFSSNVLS", "experiment": "Eurofins panel 255520", "assay_type": "binding"}, "[1]": {"tested_on": "primary human fibroblasts", "experiment": "Cell viability MTS assay", "assay_type": "cell-based", "description": "Cell proliferation was measured using a standard 3-(4,5-dimethylthiazol-2-yl)-5-(3-carboxymethoxypheny1)-2-(4-sulfophenyl)-2H-tetrazolium, inner salt (MTS) assay (Cell Titer 96® Aqueous One Solution Cell Proliferation Assay, Promega, Australia) as per the manufacturer’s protocol. Briefly, 2500 primary scar fibroblasts below passage eight were seeded in each well of 96-well plates. The cells then exposed to 0, 1, 2.5, 5, 10, 25, 50, and 100 µM concentrations of PXS-4787 in cell culture media (DMEM-Glutamax™ supplemented with 10% Fetal Bovine Serum and 1% Penicillin/ Streptomycin, Life technologies, USA) for 24, 48 and 72 h. MTS solution (20 µL) was added in each well and incubated for 3.5 h in a humidified chamber at 37 °C and 5% CO2. The absorbance recorded on a UV–visible spectrophotometer (Enspire Multimode plate reader, PerkinElmer®) at 490 nanometers."}, "Phosphodiesterase PDE3A": {"target": "Phosphodiesterase PDE3A (Homo sapiens, UniProt Q14432)", "sequence (Q14432 whole entry)": "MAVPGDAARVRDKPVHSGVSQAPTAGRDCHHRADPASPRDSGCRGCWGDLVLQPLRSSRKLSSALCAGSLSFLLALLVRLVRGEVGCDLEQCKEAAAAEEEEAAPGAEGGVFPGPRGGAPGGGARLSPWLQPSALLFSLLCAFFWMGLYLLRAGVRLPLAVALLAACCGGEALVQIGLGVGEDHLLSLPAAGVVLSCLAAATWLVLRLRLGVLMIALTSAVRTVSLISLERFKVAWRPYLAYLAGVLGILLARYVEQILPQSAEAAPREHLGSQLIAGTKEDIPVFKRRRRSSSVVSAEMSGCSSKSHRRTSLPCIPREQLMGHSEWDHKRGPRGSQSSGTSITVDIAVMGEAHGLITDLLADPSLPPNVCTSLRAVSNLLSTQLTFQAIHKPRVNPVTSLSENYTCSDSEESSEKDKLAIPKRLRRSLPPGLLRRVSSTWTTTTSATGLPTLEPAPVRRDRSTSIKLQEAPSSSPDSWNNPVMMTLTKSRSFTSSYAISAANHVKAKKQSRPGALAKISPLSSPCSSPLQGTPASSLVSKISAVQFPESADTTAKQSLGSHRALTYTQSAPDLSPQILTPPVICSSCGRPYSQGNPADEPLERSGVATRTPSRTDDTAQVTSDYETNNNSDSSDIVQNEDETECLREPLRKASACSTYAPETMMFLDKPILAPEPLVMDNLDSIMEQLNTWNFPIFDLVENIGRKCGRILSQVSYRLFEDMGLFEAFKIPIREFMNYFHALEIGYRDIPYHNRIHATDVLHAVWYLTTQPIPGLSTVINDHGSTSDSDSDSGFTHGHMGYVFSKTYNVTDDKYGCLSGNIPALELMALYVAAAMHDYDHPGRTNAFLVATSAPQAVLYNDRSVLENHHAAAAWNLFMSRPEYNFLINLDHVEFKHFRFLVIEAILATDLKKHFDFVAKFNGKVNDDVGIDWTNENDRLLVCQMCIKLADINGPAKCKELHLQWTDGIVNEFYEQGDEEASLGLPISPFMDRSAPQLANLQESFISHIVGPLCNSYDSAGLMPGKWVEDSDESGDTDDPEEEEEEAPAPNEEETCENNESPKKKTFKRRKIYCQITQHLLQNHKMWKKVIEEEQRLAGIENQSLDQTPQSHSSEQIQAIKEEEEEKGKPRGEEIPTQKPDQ", "experiment": "Eurofins panel 152300", "assay_type": "biochemical"}, "Monoamine Oxidase MAO-A": {"target": "Monoamine Oxidase MAO-A (Homo sapiens, UniProt P21397)", "sequence (P21397 whole entry)": "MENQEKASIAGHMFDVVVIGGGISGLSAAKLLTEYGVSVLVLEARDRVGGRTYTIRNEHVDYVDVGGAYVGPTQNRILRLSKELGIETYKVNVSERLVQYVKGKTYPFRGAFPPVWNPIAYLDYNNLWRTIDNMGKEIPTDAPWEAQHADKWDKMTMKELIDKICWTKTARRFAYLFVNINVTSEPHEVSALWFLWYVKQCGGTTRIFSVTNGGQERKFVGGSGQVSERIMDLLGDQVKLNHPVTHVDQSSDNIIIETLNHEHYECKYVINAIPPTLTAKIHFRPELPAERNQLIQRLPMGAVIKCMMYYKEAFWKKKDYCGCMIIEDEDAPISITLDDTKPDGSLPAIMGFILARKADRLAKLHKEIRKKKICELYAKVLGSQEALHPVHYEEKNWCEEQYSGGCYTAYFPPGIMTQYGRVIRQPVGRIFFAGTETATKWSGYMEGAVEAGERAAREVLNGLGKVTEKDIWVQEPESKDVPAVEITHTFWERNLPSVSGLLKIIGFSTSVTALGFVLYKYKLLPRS", "experiment": "Eurofins panel 140010", "assay_type": "biochemical"}}, "note": "“And” between values parts separate entries of the source, which are not always exact repeats. Identical values can stand only once. “Also recorded” adds a separate entry of the source.", "data": [{"smiles": "NC/C=C(\\F)CS(=O)(=O)c1ccccc1", "note": "[PXS-4787]", "values": [{"measurement": "inhibition at 10 µM", "setting": "Adrenergic α1B", "value": -2, "unit": "%"}, {"measurement": "inhibition at 10 µM", "setting": "hERG potassium channel", "value": 9, "unit": "%"}, {"measurement": "inhibition at 10 µM", "setting": "Endothelin ETB", "value": 3, "unit": "%"}, {"measurement": "inhibition at 10 µM", "setting": "Tachykinin NK1", "value": 10, "unit": "%"}, {"measurement": "fibroblast cell viability", "setting": "[1]; 0–100 µM, 24, 48 and 72 h", "value": "No significant difference in viability; also recorded: no effect"}, {"measurement": "Supp Fig. 1 cell viability MTS reading (quantity not given)", "setting": "[1]; 1μM, time 0 hrs", "value": "0.5417 and 0.513 and 0.509"}, {"measurement": "Supp Fig. 1 cell viability MTS reading (quantity not given)", "setting": "[1]; 1μM, time 24 hrs", "value": "0.5067 and 0.503 and 0.5037"}, {"measurement": "Supp Fig. 1 cell viability MTS reading (quantity not given)", "setting": "[1]; 1μM, time 48 hrs", "value": "0.5417 and 0.513 and 0.509"}, {"measurement": "Supp Fig. 1 cell viability MTS reading (quantity not given)", "setting": "[1]; 1μM, time 72 hrs", "value": "0.4673 and 0.4607 and 0.4573"}, {"measurement": "Supp Fig. 1 cell viability MTS reading (quantity not given)", "setting": "[1]; 5μM, time 0 hrs", "value": "0.505 and 0.4817 and 0.4813"}, {"measurement": "Supp Fig. 1 cell viability MTS reading (quantity not given)", "setting": "[1]; 5μM, time 24 hrs", "value": "0.4947 and 0.4857 and 0.4823"}, {"measurement": "Supp Fig. 1 cell viability MTS reading (quantity not given)", "setting": "[1]; 5μM, time 48 hrs", "value": "0.505 and 0.4817 and 0.4813"}, {"measurement": "Supp Fig. 1 cell viability MTS reading (quantity not given)", "setting": "[1]; 5μM, time 72 hrs", "value": "0.461 and 0.4743 and 0.4797"}, {"measurement": "Supp Fig. 1 cell viability MTS reading (quantity not given)", "setting": "[1]; 10μM, time 0 hrs", "value": "0.5527 and 0.5103 and 0.5143"}, {"measurement": "Supp Fig. 1 cell viability MTS reading (quantity not given)", "setting": "[1]; 10μM, time 24 hrs", "value": "0.533 and 0.5197 and 0.5183"}, {"measurement": "Supp Fig. 1 cell viability MTS reading (quantity not given)", "setting": "[1]; 10μM, time 48 hrs", "value": "0.5527 and 0.5103 and 0.5143"}, {"measurement": "Supp Fig. 1 cell viability MTS reading (quantity not given)", "setting": "[1]; 10μM, time 72 hrs", "value": "0.428 and 0.481 and 0.4927"}, {"measurement": "Supp Fig. 1 cell viability MTS reading (quantity not given)", "setting": "[1]; 25μM, time 0 hrs", "value": "0.569 and 0.5407 and 0.5403"}, {"measurement": "Supp Fig. 1 cell viability MTS reading (quantity not given)", "setting": "[1]; 25μM, time 24 hrs", "value": "0.5363 and 0.517 and 0.513"}, {"measurement": "Supp Fig. 1 cell viability MTS reading (quantity not given)", "setting": "[1]; 25μM, time 48 hrs", "value": "0.569 and 0.5407 and 0.5403"}, {"measurement": "Supp Fig. 1 cell viability MTS reading (quantity not given)", "setting": "[1]; 25μM, time 72 hrs", "value": "0.45 and 0.5113 and 0.529"}, {"measurement": "Supp Fig. 1 cell viability MTS reading (quantity not given)", "setting": "[1]; 50μM, time 0 hrs", "value": "0.5427 and 0.5253 and 0.526"}, {"measurement": "Supp Fig. 1 cell viability MTS reading (quantity not given)", "setting": "[1]; 50μM, time 24 hrs", "value": "0.4977 and 0.5027 and 0.5057"}, {"measurement": "Supp Fig. 1 cell viability MTS reading (quantity not given)", "setting": "[1]; 50μM, time 48 hrs", "value": "0.5427 and 0.5253 and 0.526"}, {"measurement": "Supp Fig. 1 cell viability MTS reading (quantity not given)", "setting": "[1]; 50μM, time 72 hrs", "value": "0.5073 and 0.527 and 0.526"}, {"measurement": "Supp Fig. 1 cell viability MTS reading (quantity not given)", "setting": "[1]; 100μM, time 0 hrs", "value": "0.478 and 0.466 and 0.467"}, {"measurement": "Supp Fig. 1 cell viability MTS reading (quantity not given)", "setting": "[1]; 100μM, time 24 hrs", "value": "0.468 and 0.457 and 0.456"}, {"measurement": "Supp Fig. 1 cell viability MTS reading (quantity not given)", "setting": "[1]; 100μM, time 48 hrs", "value": "0.461 and 0.4477 and 0.449"}, {"measurement": "Supp Fig. 1 cell viability MTS reading (quantity not given)", "setting": "[1]; 100μM, time 72 hrs", "value": "0.4837 and 0.4977 and 0.499"}]}, {"smiles": "NC/C=C(\\F)C(F)(F)S(=O)(=O)c1ccccc1", "note": "[PXS-6302]", "values": [{"measurement": "inhibition at 30 µM", "setting": "Phosphodiesterase PDE3A", "value": -4, "unit": "%"}, {"measurement": "inhibition at 30 µM", "setting": "Monoamine Oxidase MAO-A", "value": 10, "unit": "%"}]}]}
